27 molecules from patent US20150011751A1, “NOVEL TRIAZINE DERIVATIVE” (CARNA BIOSCIENCES, INC., priority 2012, published 2015) can be followed below.

In the assay the target is Dephosphorylated BTK (Homo sapiens, UniProt Q06187). The experiment in a line: Test of activity inhibition against dephosphorylated BTK (mobility shift assay).
Dephosphorylated BTK, sequence (Q06187 whole entry): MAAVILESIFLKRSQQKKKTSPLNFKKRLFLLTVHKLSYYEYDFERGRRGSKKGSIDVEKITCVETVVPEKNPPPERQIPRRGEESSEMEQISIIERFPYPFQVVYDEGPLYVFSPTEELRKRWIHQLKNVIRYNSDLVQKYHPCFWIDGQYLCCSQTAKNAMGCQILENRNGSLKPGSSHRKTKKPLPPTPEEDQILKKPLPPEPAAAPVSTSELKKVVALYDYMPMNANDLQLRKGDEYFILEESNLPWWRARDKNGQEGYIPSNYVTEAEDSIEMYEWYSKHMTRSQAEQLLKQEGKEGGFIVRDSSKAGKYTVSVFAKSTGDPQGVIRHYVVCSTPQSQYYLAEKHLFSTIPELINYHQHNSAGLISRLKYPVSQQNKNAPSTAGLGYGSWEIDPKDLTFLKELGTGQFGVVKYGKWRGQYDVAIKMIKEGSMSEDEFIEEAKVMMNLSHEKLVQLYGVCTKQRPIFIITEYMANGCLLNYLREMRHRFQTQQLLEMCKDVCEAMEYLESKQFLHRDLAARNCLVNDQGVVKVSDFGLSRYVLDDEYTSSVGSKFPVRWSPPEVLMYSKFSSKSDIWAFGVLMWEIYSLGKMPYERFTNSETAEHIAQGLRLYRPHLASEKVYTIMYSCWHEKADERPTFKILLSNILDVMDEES
Take `Nc1nc(Nc2ccc(O)cc2)nc(-c2cccc(N3CCc4cc(C5CC5)cc(F)c4C3=O)c2CO)n1` [Example 182, 2-(3-{4-Amino-6-[(4-hy-droxyphenyl)amino]-1,3,5-triazin-2-yl}-2-(hydroxymethyl)phenyl)-6-cyclopropyl-8-fluoro-3,4-dihydro-isoquinolin-1(2H)-one]: the half-maximal inhibitory concentration (IC50) came out at 3.6 nM. In the case of `CC(C)(C)c1ccc(C(=O)Nc2cccc(-c3nc(N)nc(Nc4ccc(N5CCC(O)CC5)cc4)n3)c2CO)cc1` [Example 107, N-[3-(4-Amino-6-{[4-(4-hydroxypiperidin-1-yl)phenyl]amino}-1,3,5-triazin-2-yl)-2-(hy-droxymethyl)phenyl]-4-(tert-butyl)benzamide], the IC50 is 0.8 nM. For `Nc1nc(Nc2cnn(C3CC3)c2)nc(-c2cccc(N3CCc4cc(C5CC5)cc(F)c4C3=O)c2CO)n1` [Example 238, 2-(3-{4-Amino-6-[(1-cyclo-propyl-1H-pyrazol-4-yl)amino]-1,3,5-tri-azin-2-yl}-2-(hydroxy-methyl)phenyl)-6-cyclo-propyl-8-fluoro-3,4-dihydroisoquinolin-1 (2H)-one], the IC50 was determined as 0.9 nM. To `Nc1nc(Nc2ccc(N3CCOCC3)cc2)nc(-c2cccc(NC(=O)c3ccc4c(c3)CCC4)c2CO)n1` [Example 171, N-(3-{4-Amino-6-[(4-morpholinophenyl)amino]-1,3,5-triazin-2-yl}-2-(hydroxymethyl)phe-nyl)-2,3-dihydro-1H-indene-5-carboxamide] belongs 26 nM; to `CN(C)CCCOc1ccc(Nc2nc(N)nc(-c3cccc(N4CCc5cc(C6CC6)cc(F)c5C4=O)c3CO)n2)cc1` [Example 183, 2-{3-[4-Amino-6-({4-[3-(dimethylamino)pro-poxy]phenyl}amino)-1,3,5-triazin-2-yl]-2-(hydroxymethyl)phenyl}-6-cyclopropyl-8-fluoro-3,4-dihydro-isoquinolin-1(2H)-one], 2.3 nM. To `Cc1c(NC(=O)c2ccc(C(C)(C)C)cc2)cccc1-c1ncnc(Nc2ccc(N3CCOCC3)cc2)n1` [Example 24, 4-(tert-Butyl)-N-(2-meth-yl-3-{4-[(4-morpho-linophenyl)amino]-1,3,5-triazin-2-yl}phenyl) benzamide] belongs 3.4 nM. To `COc1c(NC(=O)c2ccc(C(C)(C)C)cc2)cccc1-c1nc(N)nc(Nc2ccc(N3CCOCC3)cc2)n1` [Example 96, N-(3-{4-Amino-6-[(4-morpholinophenyl)amino]-1,3,5-triazin-2-yl}-2-methoxyphenyl)-4-(tert-butyl)benzamide] belongs 7.7 nM. Take `Nc1nc(Nc2cnn(CC(=O)N3CCOCC3)c2)nc(-c2cccc(N3CCc4cc(C5CC5)cc(F)c4C3=O)c2CO)n1` [Example 253, 2-[3-(4-Amino-6-{[1-(2-morpholino-2-oxoeth-yl)-1H-pyrazol-4-yl]ami-no}-1,3,5-triazin-2-yl)-2-(hydroxymethyl)phenyl]-6-cyclopropyl-8-fluoro-3,4-dihydro-isoquinolin-1(2H)-one]: the IC50 stood at 0.8 nM. Take `Nc1nc(Nc2cnn([C@H]3CCOC3)c2)nc(-c2cccc(N3CCc4cc(C5CC5)cc(F)c4C3=O)c2CO)n1` [Example 235, (S)-2-[3-(4-Amino-6-{[1-(tetrahydrofuran-3-yl)-1H-pyrazol-4-yl]amino}-1,3,5-triazin-2-yl)-2-(hydroxymeth-yl)phenyl]-6-cyclopropyl-8-fluoro-3,4-dihydro-isoquinolin-1(2H)-one]: the IC50 stood at 0.8 nM.

Regarding `Nc1nc(Nc2cnn([C@@H]3CCOC3)c2)nc(-c2cccc(N3CCc4cc(C5CC5)cc(F)c4C3=O)c2CO)n1` [Example 236, (R)-2-[3-(4-Amino-6-{[1-(tetrahydrofuran-3-yl)-1H-pyrazol-4-yl]amino}-1,3,5-triazin-2-yl)-2-(hydroxymeth-yl)phenyl]-6-cyclopropyl-8-fluoro-3,4-dihydro-isoquinolin-1(2H)-one], the IC50 was 0.8 nM. In the case of `Nc1nc(Nc2ccc(N3CCNCC3)cc2)nc(-c2cccc(N3CCc4cc(C5CC5)cc(F)c4C3=O)c2CO)n1` [Example 191, 2-[3-(4-Amino-6-{[4-(pipe-razin-1-yl)phenyl]amino}-1,3,5-triazin-2-yl)-2-(hydroxymeth-yl)phenyl]-6-cyclopro-pyl-8-fluoro-3,4-dihy-droisoquinolin-1(2H)-one], the IC50 is 1 nM.

On to `Nc1nc(Nc2ccn(CCO)c2)nc(-c2cccc(N3CCc4cc(C5CC5)cc(F)c4C3=O)c2CO)n1` [Example 234, 2-[3-(4-Amino-6-{[1-(2-hydroxyethyl)-1H-pyrrol-3-yl]amino}-1,3,5-triazin-2-yl)-2-(hy-droxymethyl)phenyl]-6-cyclopropyl-8-fluoro-3,4-dihydroisoquinolin-1(2H)-one], for which the IC50 was found to be 2.7 nM.

For `CC(C)(C)c1ccc(C(=O)Nc2cccc(-c3nc(N)nc(Nc4ccc(-n5ccnc5)cc4)n3)c2CO)cc1` [Example 185, N-[3-(4-{[4-(1H-Imida-zol-1-yl)phenyl]amino}-6-amino-1,3,5-triazin-2-yl)-2-(hydroxymeth-yl)phenyl]-4-(tert-butyl)benzamide], the 50% inhibitory concentration (IC50) is 1.2 nM.

Consider `CN1CCN(c2ccc(Nc3nc(N)nc(-c4cccc(NC(=O)c5ccc(C(C)(C)C)cc5)c4CO)n3)cc2)CC1` [Example 146, N-[3-(4-Amino-6-{[4-(4-methylpiperazin-1-yl)phenyl]amino}-1,3,5-triazin-2-yl)-2-(hy-droxymethyl)phenyl]-4-(tert-butyl)benzamide], for which the IC50 amounted to 0.4 nM. As for `C=CCn1cc(Nc2nc(N)nc(-c3cccc(N4CCc5cc(C6CC6)cc(F)c5C4=O)c3CO)n2)cn1` [Example 274, 2-(3-{4-[(1-Allyl-1H-pyrazol-4-yl)amino]-6-amino-1,3,5-triazin-2-yl}-2-(hydroxymethyl)phenyl)-6-cyclopropyl-8-fluoro-3,4-dihydro-isoquinolin-1(2H)-one], the IC50 was 1 nM.

For `Cc1c(NC(=O)c2ccc(C(C)(C)C)cc2)cccc1-c1nc(N)nc(Nc2ccc(N3CCCC(O)C3)cc2)n1` (stereo not drawn) [Example 81, N-[3-(4-Amino-6-{[4-(3-hydroxypiperidin-1-yl)phenyl]amino}-1,3,5-triazin-2-yl)-2-meth-ylphenyl]-4-(tert-bu-tyl)benzamide], the IC50 is 2.2 nM. For the molecule `Nc1nc(Nc2ccc(OCCN3CCOCC3)cc2)nc(-c2cccc(NC(=O)c3cc4c(s3)CCCC4)c2CO)n1` [Example 138, N-[3-(4-Amino-6-{[4-(2-morpholinoethoxy)phe-nyl]amino}1,3,5-tri-azin-2-yl)-2-(hydroxy-methyl)phenyl]-4,5,6,7-tetrahydrobenzo[b]thio-phene-2-carboxamide], the IC50 came out at 1.7 nM.

As for `Nc1nc(Nc2ccc(N3CCOC(CO)C3)cc2)nc(-c2cccc(NC(=O)c3cc4c(s3)CCCC4)c2CO)n1` (stereo not drawn) [Example 127, N-{3-[4-Amino-6-({4-[2-(hydroxymethyl)morpho-lino]phenyl}amino)-1,3,5-triazin-2-yl]-2-(hydroxymethyl)phenyl}-4,5,6,7-tetrahydro-benzo[b]thiophene-2-carboxamide], the IC50 turned out to be 0.5 nM. The value for `CC(C)(C)c1ccc(C(=O)Nc2cccc(-c3nc(N)nc(Nc4ccc5c(c4)ncn5CCCO)n3)c2CO)cc1` [Example 155, N-[3-(4-Amino-6-{[1-(3-hydroxypropyl)-1H-benzo[d]imidazol-5-yl]amino}-1,3,5-triazin-2-yl)-2-(hydroxymeth-yl)phenyl]-4-(tert-butyl)benzamide] was 0.8 nM; that for `CC(C)(C)c1ccc(C(=O)Nc2cccc(-c3nc(N)nc(Nc4ccc5[nH]c(=O)[nH]c5c4)n3)c2CO)cc1` [Example 141, N-(3-{4-Amino-6-[(2-oxo-2,3-dihydro-1H-ben-zo[d]imidazol-5-yl)ami-no]-1,3,5-triazin-2-yl}-2-(hydroxymethyl)phenyl)-4-(tert-butyl) benzamide] was 1.2 nM. The value for `CN(C)C(=O)c1cc(Nc2nc(N)nc(-c3cccc(N4CCc5cc(C6CC6)cc(F)c5C4=O)c3CO)n2)cn1C` [Example 272, 4-({4-Amino-6-[3-(6-cyclo-propyl-8-fluoro-1-oxo-3,4-dihydroisoquino-lin-2(1H)-yl)-2-(hydroxy-methyl)phenyl]-1,3,5-triazin-2-yl}ami-no)-N,N,1-trimethyl-1H-pyrrole-2-carboxamide] was 1.1 nM. To `CC(C)(C)c1ccc(C(=O)Nc2cccc(-c3nc(N)nc(Nc4ccc(N5CCOC(CO)C5)cc4)n3)c2CO)cc1` (stereo not drawn) [Example 106, N-{3-[4-Amino--({4-[2-(hydroxymethyl)morpho-lino]phenyl}amino)-1,3,5-triazin-2-yl]-2-(hydroxymethyl)phenyl}-4-(tert-butyl)benzamide] belongs 0.7 nM. Regarding `COc1cc(Nc2nc(N)nc(-c3cccc(NC(=O)c4ccc(C(C)(C)C)cc4)c3CO)n2)cc(OC)c1OC` [Example 91, N-(3-{4-Amino-6-[(3,4,5-trimethoxyphenyl)ami-no]-1,3,5-triazin-2-yl}-2-(hydroxymethyl)phenyl)-4-(tert-butyl) benzamide], the IC50 was 1.1 nM. The value for `Cc1cc(Nc2nc(N)nc(-c3cccc(NC(=O)c4ccc(C(C)(C)C)cc4)c3CO)n2)cc(C)c1O` [Example 123, N-(3-{4-Amino-6-[(4-hy-droxy-3,5-dimethyl-phenyl)amino]-1,3,5-tri-azin-2-yl}-2-(hydroxy-methyl)phenyl)-4-(tert-butyl)benzamide] was 1.4 nM; that for `CC(C)(O)c1ccc(C(=O)Nc2cccc(-c3nc(N)nc(Nc4ccc(N5CCOCC5)cc4)n3)c2CO)cc1` [Example 208, N-(3-{4-Amino-6-[(4-morpholinophenyl)amino]-1,3,5-triazin-2-yl}-2-(hydroxymethyl)phe-nyl)-4-(2-hydroxy-propan-2-yl)benzamide] was 5.9 nM; that for `CCN(CC)c1ccc(Nc2nc(N)nc(-c3cccc(N4CCc5cc(C6CC6)cc(F)c5C4=O)c3CO)n2)cc1` [Example 245, 2-[3-(4-Amino-6-{[4-(di-ethylamino)phenyl]a-mino}-1,3,5-triazin-2-yl)-2-(hydroxymethyl)phenyl]-6-cyclopropyl-8-fluoro-3,4-dihydro-isoquinolin-1(2H)-one] was 5.6 nM. The value for `CC(C)(C)c1ccc(C(=O)Nc2cccc(-c3nc(N)nc(Nc4ccc(CO)cc4)n3)c2CO)cc1` [Example 111, N-[3-(4-Amino-6-{[4-(hydroxymethyl)phenyl]amino}-1,3,5-triazin-2-yl)-2-(hydroxymeth-yl)phenyl]-4-(tert-butyl) benzamide] was 1 nM.
